Results taken from US20060069132A1, “Azolecarboxamide herbicides” (priority 2004, published 2006).

Columns and labels:
Assay in all cases: Test E pre-/postemergence herbicide test
dallisgrass = type: in vivo, Paspalum dilatatum
Procedure, shortened: (§1)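 Visual 0–100 rating vs untreated controls (0 = no effect, 100 = complete control), 12–14 d after treatment in greenhouse. Pre- and postemergence (2–18 cm, 1- to 4-leaf) applications; compounds in non-phytotoxic solvent with surfactant.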

southern sandbur = type: in vivo, Cenchrus echinatus
Procedure, shortened: as §1

common sowthistle = type: in vivo, Sonchus oleraceous
Procedure, shortened: as §1

bermudagrass = type: in vivo, Cynodon dactylon
Procedure, shortened: as §1

broadleaf signalgrass = type: in vivo, Brachiaria platyphylla
Procedure, shortened: as §1

common chickweed = type: in vivo, Stellaria media
Procedure, shortened: as §1

common ragweed = type: in vivo, Ambrosia elatior
Procedure, shortened: as §1

field bindweed = type: in vivo, Convolvulus arvensis
Procedure, shortened: as §1

green foxtail = type: in vivo, Setaria viridis
Procedure, shortened: as §1

quackgrass = type: in vivo, Elytrigia repens
Procedure, shortened: as §1

Canada horseweed = type: in vivo, Erigeron Canadensis
Procedure, shortened: as §1

common mallow = type: in vivo, Malva sylvestris
Procedure, shortened: as §1

barnyardgrass = type: in vivo, Echinochloa crus-galli
Procedure, shortened: as §1

Italian ryegrass = type: in vivo, Lolium multiflorum
Procedure, shortened: as §1

Russian thistle = type: in vivo, Salsola kali; settings: Preemergence
Procedure, shortened: as §1

guineagrass = type: in vivo, Panicum maximum
Procedure, shortened: as §1

[1] = Postemergence, 500 g ai/ha, scale 0 to 100
[2] = Postemergence, 250 g ai/ha, scale 0 to 100
[3] = Preemergence, 62 g ai/ha, scale 0 to 100
[4] = Preemergence, 125 g ai/ha, scale 0 (no effect) to 100 (complete control)
[5] = Preemergence, 250 g ai/ha, scale 0 (no effect) to 100 (complete control)
[6] = Preemergence, 500 g ai/ha, scale 0 (no effect) to 100 (complete control)
[7] = postemergence, 125 g ai/ha, scale 0 to 100
[8] = postemergence, 62 g ai/ha, scale 0 to 100

SMILES: CCn1nc(C(C)(C)C)cc1C(=O)Nc1cc(C(=O)N(C)C)ccc1F [Compound 6, N-[5-[(dimethylamino)carbonyl]-2-fluorophenyl]-3-(1,1-dimethylethyl)-1-ethyl-1H-pyrazole-5-carboxamide]
- Plant response rating, Dallisgrass (dallisgrass; [1]): 90
- Plant response rating, Dallisgrass (dallisgrass; [2]): 80
- Plant response rating, Dallisgrass (dallisgrass; [3]): 90
- Plant response rating, Dallisgrass (dallisgrass; [4]): 95
- Plant response rating, Dallisgrass (dallisgrass; [5]): 95
- Plant response rating, Dallisgrass (dallisgrass; [6]): 100
- Plant response rating, Dallisgrass (dallisgrass; [7]): 75
- Plant response rating, Dallisgrass (dallisgrass; [8]): 60
- Plant response rating, Sandbur (southern sandbur; [1]): 100
- Plant response rating, Sandbur (southern sandbur; [2]): 100
- Plant response rating, Sandbur (southern sandbur; [3]): 85
- Plant response rating, Sandbur (southern sandbur; [4]): 100
- Plant response rating, Sandbur (southern sandbur; [6]): 100
- Plant response rating, Sandbur (southern sandbur; [7]): 95
- Plant response rating, Sandbur (southern sandbur; [8]): 85
- Plant response rating, Sowthistle (common sowthistle; [1]): 100
- Plant response rating, Sowthistle (common sowthistle; [2]): 100
- Plant response rating, Sowthistle (common sowthistle; [3]): 95
- Plant response rating, Sowthistle (common sowthistle; [4]): 95
- Plant response rating, Sowthistle (common sowthistle; [5]): 100
- Plant response rating, Sowthistle (common sowthistle; [6]): 100
- Plant response rating, Sowthistle (common sowthistle; [7]): 95
- Plant response rating, Sowthistle (common sowthistle; [8]): 75
- Plant response rating, Bermudagrass (bermudagrass; [1]): 98
- Plant response rating, Bermudagrass (bermudagrass; [2]): 90
- Plant response rating, Bermudagrass (bermudagrass; [3]): 90
- Plant response rating, Bermudagrass (bermudagrass; [4]): 95
- Plant response rating, Bermudagrass (bermudagrass; [5]): 95
- Plant response rating, Bermudagrass (bermudagrass; [6]): 100
- Plant response rating, Bermudagrass (bermudagrass; [7]): 80
- Plant response rating, Bermudagrass (bermudagrass; [8]): 35
- Plant response rating, Signalgrass (broadleaf signalgrass; [1]): 98
- Plant response rating, Signalgrass (broadleaf signalgrass; [2]): 95
- Plant response rating, Signalgrass (broadleaf signalgrass; [3]): 75
- Plant response rating, Signalgrass (broadleaf signalgrass; [4]): 75
- Plant response rating, Signalgrass (broadleaf signalgrass; [6]): 95
- Plant response rating, Signalgrass (broadleaf signalgrass; [7]): 90
- Plant response rating, Signalgrass (broadleaf signalgrass; [8]): 35
- Plant response rating, Chickweed (common chickweed; [1]): 100
- Plant response rating, Chickweed (common chickweed; [2]): 100
- Plant response rating, Chickweed (common chickweed; [3]): 90
- Plant response rating, Chickweed (common chickweed; [4]): 95
- Plant response rating, Chickweed (common chickweed; [5]): 95
- Plant response rating, Chickweed (common chickweed; [6]): 100
- Plant response rating, Chickweed (common chickweed; [7]): 100
- Plant response rating, Chickweed (common chickweed; [8]): 100
- Plant response rating, Ragweed (common ragweed; [1]): 95
- Plant response rating, Ragweed (common ragweed; [2]): 95
- Plant response rating, Ragweed (common ragweed; [3]): 50
- Plant response rating, Ragweed (common ragweed; [4]): 80
- Plant response rating, Ragweed (common ragweed; [6]): 95
- Plant response rating, Ragweed (common ragweed; [7]): 90
- Plant response rating, Ragweed (common ragweed; [8]): 75
- Plant response rating, Bindweed, Field (field bindweed; [1]): 100
- Plant response rating, Bindweed, Field (field bindweed; [2]): 100
- Plant response rating, Bindweed, Field (field bindweed; [3]): 30
- Plant response rating, Bindweed, Field (field bindweed; [4]): 60
- Plant response rating, Bindweed, Field (field bindweed; [6]): 100
- Plant response rating, Bindweed, Field (field bindweed; [7]): 95
- Plant response rating, Bindweed, Field (field bindweed; [8]): 10
- Plant response rating, Foxtail, Green (green foxtail; [1]): 98
- Plant response rating, Foxtail, Green (green foxtail; [2]): 98
- Plant response rating, Foxtail, Green (green foxtail; [3]): 95
- Plant response rating, Foxtail, Green (green foxtail; [4]): 95
- Plant response rating, Foxtail, Green (green foxtail; [6]): 100
- Plant response rating, Foxtail, Green (green foxtail; [7]): 90
- Plant response rating, Foxtail, Green (green foxtail; [8]): 80
- Plant response rating, Quackgrass (quackgrass; [1]): 98
- Plant response rating, Quackgrass (quackgrass; [2]): 95
- Plant response rating, Quackgrass (quackgrass; [3]): 95
- Plant response rating, Quackgrass (quackgrass; [4]): 100
- Plant response rating, Quackgrass (quackgrass; [6]): 100
- Plant response rating, Quackgrass (quackgrass; [7]): 90
- Plant response rating, Quackgrass (quackgrass; [8]): 80
- Plant response rating, Horseweed (Canada horseweed; [1]): 100
- Plant response rating, Horseweed (Canada horseweed; [2]): 100
- Plant response rating, Horseweed (Canada horseweed; [3]): 100
- Plant response rating, Horseweed (Canada horseweed; [4]): 100
- Plant response rating, Horseweed (Canada horseweed; [5]): 100
- Plant response rating, Horseweed (Canada horseweed; [6]): 100
- Plant response rating, Horseweed (Canada horseweed; [7]): 100
- Plant response rating, Horseweed (Canada horseweed; [8]): 75
- Plant response rating, Mallow (common mallow; [1]): 100
- Plant response rating, Mallow (common mallow; [2]): 100
- Plant response rating, Mallow (common mallow; [3]): 70
- Plant response rating, Mallow (common mallow; [4]): 100
- Plant response rating, Mallow (common mallow; [6]): 100
- Plant response rating, Mallow (common mallow; [7]): 95
- Plant response rating, Mallow (common mallow; [8]): 65
- Plant response rating, Barnyardgrass (barnyardgrass; [1]): 98
- Plant response rating, Barnyardgrass (barnyardgrass; [2]): 95
- Plant response rating, Barnyardgrass (barnyardgrass; [3]): 90
- Plant response rating, Barnyardgrass (barnyardgrass; [4]): 95
- Plant response rating, Barnyardgrass (barnyardgrass; [5]): 95
- Plant response rating, Barnyardgrass (barnyardgrass; [6]): 100
- Plant response rating, Barnyardgrass (barnyardgrass; [7]): 90
- Plant response rating, Barnyardgrass (barnyardgrass; [8]): 80
- Plant response rating, Ryegrass, Italian (Italian ryegrass; [1]): 98
- Plant response rating, Ryegrass, Italian (Italian ryegrass; [2]): 98
- Plant response rating, Ryegrass, Italian (Italian ryegrass; [3]): 90
- Plant response rating, Ryegrass, Italian (Italian ryegrass; [4]): 95
- Plant response rating, Ryegrass, Italian (Italian ryegrass; [6]): 100
- Plant response rating, Ryegrass, Italian (Italian ryegrass; [7]): 95
- Plant response rating, Ryegrass, Italian (Italian ryegrass; [8]): 80
- Plant response rating, Thistle (Russian thistle; 62 g ai/ha, scale 0 to 100): 50
- Plant response rating, Thistle (Russian thistle; 125 g ai/ha, scale 0 to 100): 70
- Plant response rating, Thistle (Russian thistle; 250 g ai/ha, scale 0 (no effect) to 100 (complete control)): 70
- Plant response rating, Thistle (Russian thistle; 500 g ai/ha, scale 0 (no effect) to 100 (complete control)): 80
- Plant response rating, Guineagrass (guineagrass; [1]): 98
- Plant response rating, Guineagrass (guineagrass; [2]): 95
- Plant response rating, Guineagrass (guineagrass; [3]): 95
- Plant response rating, Guineagrass (guineagrass; [4]): 95
- Plant response rating, Guineagrass (guineagrass; [5]): 95
- Plant response rating, Guineagrass (guineagrass; [6]): 100
- Plant response rating, Guineagrass (guineagrass; [7]): 90
- Plant response rating, Guineagrass (guineagrass; [8]): 80
